33 compounds from patent US9284283B2, “Macrocyclic compounds for modulating IL-17” (ENSEMBLE THERAPEUTICS CORPORATION, priority 2012, dated 2016) can be followed below.

Assay [1] concerns the target T1, biotinylated human IL-17 (binding to IL17R/Fc) (Homo sapiens, UniProt Q16552).
T1 construct: purchased R&D Systems 317-ILB (IL-17, biotinylated); 177-IR (IL17R/Fc)
T1 sequence (Q16552 20-155 limits assumed): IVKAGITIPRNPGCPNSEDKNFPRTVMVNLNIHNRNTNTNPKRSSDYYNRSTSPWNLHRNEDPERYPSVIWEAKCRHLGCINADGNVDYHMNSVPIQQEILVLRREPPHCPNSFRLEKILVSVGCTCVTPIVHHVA
Description: IL-17 competition ELISA II (captured IL17R/Fc, biotinylated IL-17). Put shortly: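 Competition read-out: absorbance at 450 nm after streptavidin-HRP/TMB detection, fitted to a 4-parameter logistic model bounded by no-competitor and blank wells to give IC50. Compound was serially diluted 5-fold from 1 μM alongside 20 nM (stock) biotinylated IL-17 on IL17R/Fc (10 nM) captured via goat anti-human IgG, 30 min at room temperature.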
(In general: An ELISA detects its analyte on a solid surface through an enzyme-linked reagent.)

Assay [2] has as its system IL-17A induced secretion of IL-6 in primary human RASF cells. Description: Inhibition of IL17A induced secretion of IL6 in human rheumatoid arthritis synovial fibroblast (RASF) cells. The format is cell-based. The protocol:
This assay was used to determine the extent of inhibition of IL-17A induced secretion of IL-6 in primary human rheumatoid synovial fibroblast (RASF) cells by compounds of the invention. IL-17A is known to stimulate IL-6 production in RASF cells.
Low passage (passage 2-8) Primary human RASF cells (Asterand) were maintained in maintenance medium. Cells were detached from flasks by tryptic digestion and the cell density of the suspension determined. To each well of a 96 well culture plate was added 100 μL of seeding medium containing 50,000 cells/mL and the plate incubated overnight in a humidified 37° C., 5% CO2 incubator. The medium was replaced with fresh assay medium and cells were incubated for additional 5 hours in a humidified 37° C., 5% CO2 incubator prior to stimulation with recombinant human IL-17A (“rhIL-17A”). Prior to addition to cells, rhIL-17A (30 ng/mL) in assay medium was incubated with either DMSO alone, compounds, or anti-IL17 receptor antibody (3 μg/mL) for 1 hour at 37° C. The final concentration of DMSO in all samples was 0.25%. The final concentration of compounds varied from 0.03 μM to 25 μM.
Immediately before stimulation, cells were washed once with fresh assay medium. Then, 100 μL of the test samples was added in triplicate wells and the plates incubated for 20 hours in a humidified 37° C., 5% CO2 incubator. The assay medium from each well was collected and the IL-6 concentration in cell culture supernatants was determined by ELISA either immediately or after storage at −20° C.
A water-soluble tetrazolium salt (WST1) viability assay was immediately performed on the cells after the conditioned medium was collected using a WST1 reagent purchased from Roche. The concentration of IL-6 obtained from ELISA was normalized by the WST1 data.

Where two headings read alike, the source gives them in different places.

As to `O=C1CNC(=O)[C@@H](Cc2ccc(NC(=O)[C@H](Cc3ccc(F)cc3Cl)NC(=O)Cc3ccccc3)cc2)NC(=O)CC2(CCCC2)CC(=O)NCCCCCN1` [Compound 386], the IC50 is under 100 nM in assay [1] and 1000 to 10000 nM in assay [2] (Homo sapiens, Fibroblast). The matching figures for `O=C1CNC(=O)[C@@H](Cc2ccc(NC(=O)[C@H](Cc3ccc(F)cc3Cl)NC(=O)Cc3ccc(F)cc3)cc2)NC(=O)CC2(CCCC2)CC(=O)NCCCCCN1` [Compound 388]: under 100 nM and under 100 nM.

Turning to `CN1CCNC(=O)CC2(CCCC2)CC(=O)N[C@H](Cc2ccc(NC(=O)[C@H](Cc3ccccc3Cl)NC(=O)Cc3ccccc3)cc2)C(=O)NCC1` [Compound 399], the IC50 was under 100 nM in assay [1] and 1000 to 10000 nM in assay [2] (Homo sapiens, Fibroblast). The corresponding values for `O=C1CNC(=O)[C@@H](Cc2ccc(NC(=O)[C@H](Cc3ccccc3Cl)NC(=O)Cc3ccc(NC(=O)CNCc4ccccc4)cc3)cc2)NC(=O)CC2(CCCC2)CC(=O)NCCCCCN1` [Compound 405] are under 100 nM and 100 to 1000 nM. Take `O=C1CC2(CCCC2)CC(=O)NC(Cc2ccc(NC(=O)C(Cc3ccccc3Cl)NC(=O)c3cccnc3)cc2)C(=O)NCCOCCOCCN1` (centres unmarked) [Compound 406]: the IC50 was under 100 nM in assay [1] and 1000 to 10000 nM in assay [2].

Regarding `O=C1CNC(=O)[C@@H](Cc2ccc(NC(=O)[C@H](Cc3ccc(F)cc3Cl)NC(=O)Cc3ccc(CO)cc3)cc2)NC(=O)CC2(CCCC2)CC(=O)NCCCCCN1` [Compound 408], the IC50 is under 100 nM in assay [1] and 100 to 1000 nM in assay [2] (Homo sapiens, Fibroblast). The corresponding values for `CN1C(=O)CC2(CCCC2)CC(=O)NCCCCCNC(=O)CNC(=O)[C@H]1Cc1ccc(NC(=O)[C@H](Cc2ccccc2Cl)NC(=O)Cc2ccccc2)cc1` [Compound 413] are under 100 nM and over 10000 nM. The corresponding values for `O=C1CC2(CCCC2)CC(=O)N[C@H](Cc2ccc(NC(=O)[C@@H](NC(=O)Cc3ccc(F)cc3)C3CCCCC3)cc2)C(=O)NCCOCCOCCN1` [Compound 424] are under 100 nM and over 10000 nM.

Consider `O=C1CC2(CCCC2)CC(=O)N[C@H](Cc2ccc(NC(=O)[C@H](Cc3ccccc3Cl)NC(=O)Cc3ccc(F)cc3)cc2)C(=O)N[C@H](C2CCCCC2)C(=O)NCCCCCN1` [Compound 425], for which the IC50 was under 100 nM in assay [1] and 100 to 1000 nM in assay [2] (Homo sapiens, Fibroblast). The matching figures for `C[C@H]1NC(=O)[C@@H](Cc2ccc(NC(=O)[C@H](Cc3ccccc3Cl)NC(=O)C3(c4ccc(F)cc4)CC3)cc2)NC(=O)CC2(CCCC2)CC(=O)NCCCCCNC1=O` [Compound 427]: under 100 nM and 1000 to 10000 nM.

Regarding `C[C@H]1NC(=O)[C@@H](Cc2ccc(NC(=O)[C@H](Cc3ccccc3Cl)NC(=O)C(F)(F)c3ccccc3)cc2)NC(=O)CC2(CCCC2)CC(=O)NCCCCCNC1=O` [Compound 434], the IC50 in assay [1] is under 100 nM; in assay [2] (Homo sapiens, Fibroblast), 100 to 1000 nM. The matching figures for `CN(C)CCOc1ccc(CC(=O)N[C@H](C(=O)Nc2ccc(C[C@H]3NC(=O)CC4(CCCC4)CC(=O)NCCCCCNC(=O)[C@@H](Cc4ccccc4)NC3=O)cc2)C2CCCCC2)cc1` [Compound 437]: 100 to 1000 nM and 1000 to 10000 nM.

Take `CN(CCOc1ccc(CC(=O)N[C@@H](Cc2ccccc2Cl)C(=O)Nc2ccc(C[C@H]3NC(=O)CC4(CCCC4)CC(=O)NCCCCCNC(=O)[C@@H](Cc4ccccc4)NC3=O)cc2)cc1)Cc1ccccc1` [Compound 438]: the IC50 in assay [1] was under 100 nM; in assay [2] (Homo sapiens, Fibroblast) it was 100 to 1000 nM. The corresponding values for `O=C1CC2(CCCC2)CC(=O)N[C@H](Cc2ccc(NC(=O)[C@H](Cc3ccccc3Cl)NC(=O)Cc3ccc(OCCN4CCOCC4)cc3)cc2)C(=O)N[C@H](Cc2ccccc2)C(=O)NCCCCCN1` [Compound 439] are under 100 nM and 100 to 1000 nM. The matching figures for `O=C1CC2(CCCC2)CC(=O)N[C@H](Cc2ccc(NC(=O)[C@H](Cc3ccccc3Cl)NC(=O)Cc3cccc(O)c3)cc2)C(=O)NCCCCCCCCN1` [Compound 441]: under 100 nM and 100 to 1000 nM. The matching figures for `O=C1CC2(CCCC2)CC(=O)N[C@H](Cc2ccc(NC(=O)[C@H](Cc3ccccc3Cl)NC(=O)c3cccnc3)cc2)C(=O)NCCCCCCCCN1` [Compound 442]: under 100 nM and 1000 to 10000 nM. As to `C[C@H]1NC(=O)[C@@H](Cc2ccc(NC(=O)[C@H](Cc3ccccc3Cl)NC(=O)Cc3ccccc3)cc2)NC(=O)CC2(CCCC2)CC(=O)NCCNCCNC1=O` [Compound 443], the IC50 in assay [1] was under 100 nM; in assay [2] (Homo sapiens, Fibroblast) it was 100 to 1000 nM. The corresponding values for `O=C1CC2(CCCC2)CC(=O)N[C@H](Cc2ccc(NC(=O)[C@H](Cc3ccccc3Cl)NC(=O)Cc3ccc(F)cc3)cc2)C(=O)NCC#CCCCCCN1` [Compound 446] are under 100 nM and 100 to 1000 nM. The corresponding values for `O=C1CC2(CCCC2)CC(=O)N[C@H](Cc2ccc(NC(=O)[C@H](Cc3ccccc3Cl)NC(=O)Cc3ccc(CO)cc3)cc2)C(=O)N[C@@H](CO)C(=O)NCCCC[C@@H](C(=O)O)N1` [Compound 455] are under 100 nM and under 100 nM. The matching figures for `CN1CCCCCNC(=O)CNC(=O)[C@@H](Cc2ccc(NC(=O)[C@H](Cc3ccccc3Cl)NC(=O)Cc3cccc(O)c3)cc2)NC(=O)CC2(CCCC2)CC1=O` [Compound 457]: under 100 nM and 1000 to 10000 nM. In the case of `C[C@H]1NC(=O)[C@@H](Cc2ccc(NC(=O)[C@H](Cc3ccccc3Cl)NC(=O)Cc3ccc(F)cc3)cc2)NC(=O)CC2(CCCC2)CC(=O)N(C)CCCCCNC1=O` [Compound 469], the IC50 in assay [1] is under 100 nM; in assay [2] (Homo sapiens, Fibroblast) it was 1000 to 10000 nM. The matching figures for `C[C@H]1NC(=O)[C@@H](Cc2ccc(NC(=O)[C@H](Cc3ccccc3Cl)NC(=O)Cc3ccc(F)cc3)cc2)NC(=O)CC2(CCCC2)CC(=O)NCCCCCN(C)C1=O` [Compound 470]: under 100 nM and 100 to 1000 nM. Take `CN1CCCCCNC(=O)[C@@H](CCC(=O)O)NC(=O)[C@@H](Cc2ccc(NC(=O)[C@H](Cc3ccccc3Cl)NC(=O)Cc3cccc(O)c3)cc2)NC(=O)CC2(CCCC2)CC1=O` [Compound 473]: the IC50 in assay [1] is under 100 nM; in assay [2] (Homo sapiens, Fibroblast), 100 to 1000 nM.

Take `Cc1ccccc1C[C@H](NC(=O)Cc1ccc(F)cc1)C(=O)Nc1ccc(C[C@H]2NC(=O)CC3(CCCC3)CC(=O)NCCCCCNC(=O)[C@@H](C)NC2=O)cc1` [Compound 476]: the IC50 in assay [1] is under 100 nM; in assay [2] (Homo sapiens, Fibroblast) it was 100 to 1000 nM.

As to `Cc1ccccc1C[C@H](NC(=O)Cc1ccc(F)cc1)C(=O)Nc1ccc(C[C@H]2NC(=O)CC3(CCCC3)CC(=O)NCCOCCOCCNC2=O)cc1` [Compound 478], the IC50 in assay [1] is under 100 nM; in assay [2] (Homo sapiens, Fibroblast), 1000 to 10000 nM. The matching figures for `NC(=O)CC[C@H]1NC(=O)[C@@H](Cc2ccc(NC(=O)[C@H](Cc3ccccc3Cl)NC(=O)Cc3ccc(F)cc3)cc2)NC(=O)CC2(CCCC2)CC(=O)NCCCCCNC1=O` [Compound 479]: under 100 nM and under 100 nM. The matching figures for `C[C@H]1NC(=O)[C@@H](Cc2ccc(NC(=O)[C@H](Cc3ccccc3Cl)NC(=O)Cc3ccc(F)cc3)cc2)N(C)C(=O)CC2(CCCC2)CC(=O)N(C)CCCCCNC1=O` [Compound 480]: under 100 nM and 1000 to 10000 nM. The corresponding values for `O=C1CC2(CCCC2)CC(=O)N[C@H](Cc2ccc(NC(=O)[C@H](Cc3ccccc3Cl)NC(=O)OCc3ccccc3)cc2)C(=O)NCCOCCOCCN1` [Compound 484] are under 100 nM and 100 to 1000 nM.

On to `C[C@H]1NC(=O)[C@@H](Cc2ccc(NC(=O)[C@H](Cc3ccccc3Cl)NC(=O)Cc3ccc(CO)cc3)cc2)NC(=O)CC2(CCCC2)CC(=O)NCCCCCNC1=O` [Compound 487], for which the half-inhibitory concentration (IC50) in assay [1] is under 100 nM; in assay [2] (Homo sapiens, Fibroblast), under 100 nM. Regarding `C[C@H]1NC(=O)[C@@H](Cc2ccc(NC(=O)[C@H](Cc3ccccc3Cl)NC(=O)Cc3ccc(F)cc3)cc2)NC(=O)CC2(CCCC2)CC(=O)N(C)CCCCCN(C)C1=O` [Compound 488], the IC50 in assay [1] is under 100 nM; in assay [2] (Homo sapiens, Fibroblast), 1000 to 10000 nM. The matching figures for `O=C1CC2(CCCC2)CC(=O)N[C@H](Cc2ccc(NC(=O)[C@H](Cc3ccccc3Cl)NC(=O)Cc3ccc(F)cc3)cc2)C(=O)NCCOCCOCCN1` [Compound 490]: under 100 nM and 1000 to 10000 nM. The corresponding values for `Cc1ccc(CC(=O)N[C@@H](Cc2ccccc2Cl)C(=O)Nc2ccc(C[C@H]3NC(=O)CC4(CCCC4)CC(=O)NCCOCCOCCNC3=O)cc2)cc1` [Compound 494] are under 100 nM and 100 to 1000 nM. Regarding `Cc1ccccc1C[C@H](NC(=O)C(F)(F)c1ccccc1)C(=O)Nc1ccc(C[C@H]2NC(=O)CC3(CCCC3)CC(=O)N(C)CCCCCNC(=O)[C@@H](C)NC2=O)cc1` [Compound 512], in assay [2] (Homo sapiens, Fibroblast), the IC50 fell in the range of 100 to 1000 nM.

The IC50 is the concentration at which inhibition is half-maximal.
